Source: patent publication US9034886B2, “4-aminoquinazoline derivatives and uses thereof” (Shanghai Institute of Pharmaceutical Industry, priority 2011, dated 2015)

How the values were obtained:
[1] = Maximum tolerance dose through intragastrical administration; assay type: in vivo; conditions: mice, administrated intragastrically
Procedure: Forty ICR mice, half female and half male, weighing […] were divided into four groups, 10 mice in each group. After the mice were fasted for 6 h, the compound to be tested was administrated intragastrically to each group at a volume of 0.3 ml/10 g by using a sterile plastic syringe. General physical signs and the deaths of the animals were record at 1, 2 and 4 h after the administration. The animals were then observed continuously for 14 days and their weights, physical signs and deaths were observed and recorded every day. Dead animals were dissected to see if there was any visible pathological change in the animal's viscera and pathological examination was performed on suspicious tissues and organs. A part of the experimental results is as follows.

[2] = system: PC-3 human prostate cancer; assay: In vitro anti-proliferative effect, CCK-8 method, PC-3; assay type: cell-based; conditions: Homo sapiens; for inhibition at 10 µM / inhibition at 100 µM: PC-3 cell strain, CCK-8 method; for inhibition at 10 µM: compound at 10 μM; for inhibition at 100 µM: compound at 100 μM
How it was run: (§1)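 Two-point screen, 100 μM and 10 μM; CCK-8 colorimetric read-out gives % growth inhibition.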

[3] = system: MDA-MB-435s human breast cancer cells; assay: In vitro anti-proliferative effect, CCK-8 method, MDA-MB-435s; assay type: cell-based; conditions: Homo sapiens, MDA-MB-435S
How it was run: as §1

[4] = system: Jurkat E6-1 human T-cell lymphoma; assay: In vitro anti-proliferative effect, CCK-8 method, Jurkat E6-1; assay type: cell-based; conditions: Homo sapiens, Jurkat E6.1
How it was run: as §1

[5] = system: PANC-1 human pancreatic cancer cells; assay: In vitro anti-proliferative effect, CCK-8 method, PANC-1; assay type: cell-based; conditions: Homo sapiens, PANC-1
How it was run: as §1

[6] = system: Hep3B2.1-7 human liver cancer cells; assay: In vitro anti-proliferative effect, CCK-8 method, Hep3B; assay type: cell-based; conditions: Homo sapiens; for inhibition at 10 µM / inhibition at 100 µM: Hep3B cell strain, CCK-8 method; for inhibition at 10 µM: compound at 10 μM; for inhibition at 100 µM: compound at 100 μM
How it was run: as §1

HDACs = assay: In vitro inhibition of HDACs (HDAC Inhibitor Drug Screening Kit, Biovision K340-100); assay type: biochemical; conditions: for inhibitory activity on HDACs compared with MS-275: concentrations of 2 mM, 200 μM, and 40 μM
Procedure: The in vitro inhibitory activities of the compounds towards HDACs were tested according to the instructions in the HDAC Inhibitor Drug Screening Kit (Biovision/Catalog #K340-100).
(1) The compounds to be tested were each individually prepared as 2 mM, 200 μM and 40 μM solutions and their inhibitory activities at these concentrations were tested.

[7] = system: Colo320 human colorectal cancer cell lines; assay: In vitro anti-proliferative effect, CCK-8 method, Colo320; assay type: cell-based; conditions: Homo sapiens, COLO 320; for inhibition at 10 µM / inhibition at 100 µM: Colo320 cell strain, CCK-8 method; for inhibition at 10 µM: compound at 10 μM; for inhibition at 100 µM: compound at 100 μM
How it was run: as §1

[8] = system: K562 human chronic myelogenous leukemia cells; assay: In vitro anti-proliferative effect, CCK-8 method, K562; assay type: cell-based; conditions: Homo sapiens, K562
How it was run: (§2)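 K562 and Hut78 cells exposed to compounds at 100 μM and 10 μM. Percent inhibition of proliferation determined by CCK-8 read-out.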

[9] = system: Hut78 T lymphocytic leukemia cells; assay: In vitro anti-proliferative effect, CCK-8 method, Hut78; assay type: cell-based; conditions: Homo sapiens, HuT78; for inhibition at 10 µM / inhibition at 100 µM: read-out: Hut-78 (inhibition %)
How it was run: as §2

HDAC1 = HDAC1 (Homo sapiens (Human), UniProt Q13547); assay: In vitro inhibition of subtype HDAC1 (HDAC1 Inhibitor Drug Screening Kit, Biovision); assay type: biochemical; conditions: for inhibition at 1 µM / inhibition at 10 µM: read-out: % Inhibition towards HDAC1
HDAC1, sequence (Q13547 whole entry): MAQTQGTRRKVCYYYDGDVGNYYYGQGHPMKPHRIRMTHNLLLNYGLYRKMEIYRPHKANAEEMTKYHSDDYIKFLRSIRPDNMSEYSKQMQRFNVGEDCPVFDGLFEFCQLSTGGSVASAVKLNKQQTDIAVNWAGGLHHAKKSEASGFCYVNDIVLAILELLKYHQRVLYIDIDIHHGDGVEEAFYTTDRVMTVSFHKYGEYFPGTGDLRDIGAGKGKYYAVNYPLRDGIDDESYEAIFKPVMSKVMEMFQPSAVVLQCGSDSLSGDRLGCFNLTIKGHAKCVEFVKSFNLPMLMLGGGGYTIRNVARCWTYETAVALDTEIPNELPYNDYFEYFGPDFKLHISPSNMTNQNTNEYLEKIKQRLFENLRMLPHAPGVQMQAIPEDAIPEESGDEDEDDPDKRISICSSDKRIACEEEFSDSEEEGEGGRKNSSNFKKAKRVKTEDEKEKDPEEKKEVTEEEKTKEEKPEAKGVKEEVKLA
Procedure: The in vitro inhibitory activities of the compounds towards the subtype HDAC1 were tested according to the instructions in the HDAC1 Inhibitor Drug Screening Kit (Biovision).
(1) The compounds to be tested were each individually prepared as 10 μM and 1 μM solutions and their inhibitory activities at these concentrations were tested.
Each dilution sample was placed in two wells and the enzyme inhibition IC50 of the compound was tested.

[10] = system: A549 human lung cancer cells; assay: In vitro anti-proliferative effect, CCK-8 method, A549; assay type: cell-based; conditions: Homo sapiens, A549
How it was run: as §1

SMILES | maximum tolerance dose [1] | inhibition at 10 µM [2] | inhibition at 100 µM [2] | inhibition at 10 µM [3] | inhibition at 100 µM [3] | inhibition at 10 µM [4] | inhibition at 100 µM [4] | inhibition at 10 µM [5] | inhibition at 100 µM [5] | inhibition at 10 µM [6] | inhibition at 100 µM [6] | Inhibition percentage (%) towards HDACs (HDACs; 40 μM) | Inhibition percentage (%) towards HDACs (HDACs; 200 μM) | Inhibition percentage (%) towards HDACs (HDACs; 2 mM) | inhibition at 10 µM [7] | inhibition at 100 µM [7] | inhibition at 10 µM [8] | inhibition at 100 µM [8] | inhibition at 10 µM [9] | inhibition at 100 µM [9] | other results
Nc1ccc(F)cc1NC(=O)c1ccc(Nc2ncnc3c(F)cccc23)cc1 [Compound V-14, N-(2-amino-5-fluorophenyl)-4-(8-fluoroquinazoline-4-amino)benzamide] | over 2000 mg/kg | 22.9% | 84.4% | 19.5% | 63.9% | 23.8% | 96.5% | -2.8% | 15.7% | 7.2% | 79.3% | 46.8% | 67.1% | 94.8% | -14.3% | 82.7% | 34% | 88.7% | 22% | 91.1% | IC50 [2]: 3.57 µM; IC50 [4]: 1390 nM; IC50 ([6]; Hep3B): 16 µM; IC50 (HDACs): 3770 nM; inhibitory activity according to in vitro IC50 value against HDACs compared with MS-275 (HDACs): better inhibitory activities than MS-275; inhibitory activity on HDACs compared with MS-275 (HDACs): significantly stronger inhibitory activities than MS-275; IC50 [7]: 27 µM; IC50 [8]: 2810 nM; IC50 [9]: 55.8 nM; inhibition at 1 µM (HDAC1): 1.48%; inhibition at 10 µM (HDAC1): 28.9%; IC50 [10]: 5.09 µM; inhibition at 10 µM [10]: -17.6%; inhibition at 100 µM [10]: 72.2%
COc1cc2ncnc(Nc3ccc(C(=O)Nc4ccccc4N)cc3)c2cc1OCCCN1CCOCC1 [Compound V-17, N-(2-aminophenyl)-4-[7-methoxy-6-(3-morpholinylpropoxy)quinazoline-4-amino]benzamide] | over 5000 mg/kg | 41.8% | 67.1% | 32.5% | 73.3% | 20.3% | 80.2% | 12% | 25.1% | 18.4% | 45.7% | 39.7% | 60.7% | 86.7% | 4.9% | 28.9% | 33.6% | 72.4% | 73.4% | 93.5% | IC50 (HDACs): 1720 nM; inhibitory activity according to in vitro IC50 value against HDACs compared with MS-275 (HDACs): better inhibitory activities than MS-275; inhibitory activity on HDACs compared with MS-275 (HDACs): significantly stronger inhibitory activities than MS-275; IC50 (HDAC1): 735 nM; inhibition at 1 µM (HDAC1): 53.9%; inhibition at 10 µM (HDAC1): 76.2%; inhibitory activity against HDAC1 compared with MS-275 (HDAC1; both concentrations 10 μM and 1 μM): superior to that of MS-275; inhibition at 10 µM [10]: 29.8%; inhibition at 100 µM [10]: 67.9%
Nc1ccc(F)cc1NC(=O)c1ccc(CNc2ncnc3ccccc23)cc1 [Compound V-29, N-(2-amino-5-fluorophenyl)-4-[(quinazoline-4-amino)methyl]benzamide] | over 5000 mg/kg | 88% | 94.5% | 10.1% | 78.5% | 51.5% | 96.2% | 0.9% | 18.4% | 22.5% | 60.5% | 8.6% | 31.0% | 37.8% | -7.2% | 35.5% | 57.4% | 83.8% | 79.4% | 94% | IC50 (HDAC1): 517 nM; inhibition at 1 µM (HDAC1): 41.4%; inhibition at 10 µM (HDAC1): 63.2%; inhibition at 10 µM [10]: 6.3%; inhibition at 100 µM [10]: 69.8%
